Laboratory results published in paper PMC7601231 (Polymers, 2020).

Assays:
[1] = Pharmacokinetic study in rats after injection; assay type: in vivo, Sprague–Dawley rats; conditions: 10 mg/kg, n = 12
Protocol: Blood samples (0.5 mL) were taken from the retinal vein of the rats using a capillary and at the following time points after injecting: 5, 10, 15, 30 min, 1, 2, 4, 6, 8, 10 and 12 h. The sample should be transferred to the heparin sodium tube for anticoagulation. The samples were centrifuged at 4000 rpm for 10 min. The resultant plasma was poured into 2-mL cryogenic plastic tubes and stored in a freezer (at […]) until assayed. A week later, the two groups of animals exchanged the drug and obtained plasma samples, which were stored in the −20-degree refrigerator for analysis. The sample was extracted in the following steps: the plasma ([…]) was mixed with […] of paclitaxel solution (4.0 mg/mL) as […], and 1.0 mL methyl tert-butyl ether in a 2-mL plastic centrifuge tube, centrifuged at 10,000 rpm for 5 min to precipitate the proteins and the supernatant layer (0.8 mL) was blown dry by N2 and is dissolved by 0.1 mL methanol, which was centrifuged at 10,000 rpm for 10 min. The supernatant layer ([…]) was analyzed by LC-MS (Waters, American).
The plasma concentration versus time curves of the two preparations were plotted. The pharmacokinetic parameters such as elimination rate (Ke) and elimination half-life (T1/2) were calculated by using DAS2.0 software. The maximum peak concentration (Cmax) and the corresponding sampling time (Tmax) were obtained from the curves directly. The areas under the plasma concentration–time curve from time zero to time t (AUC0–t) and from time zero to infinity (AUC0-∞) were calculated by the method of moments. Statistical comparisons were made by using a ANOVA test and p value smaller than 0.05 was considered statistically significant.

[2] = Biodistribution study in rats; assay type: in vivo; conditions: 10 mg/kg, 10, 60 and 360 min after administration
[3] = Vascular stimulation test, ear vein injection; assay type: in vivo, New Zealand white rabbits; conditions: rabbit ear vein, 0.7 mg/kg, every day, three injections
Protocol: Preparations were administered every day for a total of three injections. At designed time points, rabbits were anesthetized and ear tissue was soaked with 10% formalin. Then the histopathologic examination was conducted.

[4] = Phase-solubility studies of DTX in SBE-β-CD aqueous solution; assay type: physicochemical; conditions: 25 °C
Protocol: In this study, the stability constant was assessed by classic determination method using solubility diagrams that required calculations involving drug solubility. […] Then the resulting suspensions were shaken in a thermostatic air-bath shaker at 25 °C for 48 h until equilibrium was achieved. After that, the saturated supernatant fluid was centrifuged for 5 min under 5000 rpm, and then the top fluid was withdrawn and filtered through a 0.45-μm filter. The filtrate was diluted appropriately with deionized water and analyzed by HPLC as reported above.

- AUC(0-t) [1]: 881.4 ± 30.4 ng/mL ∗ h
- AUC(0-∞) [1]: 925.8 ± 35.2 ng/mL ∗ h
- Cmax ([1]; male, Sprague-Dawley, rat, plasma, other: injection): 1100 ± 98 ng/mL
- concentration of DTX in brain, fat and testis [2]: low
- increase of water solubility of DTX over its original values [4]: about 800 times
SMILES: CC(=O)O[C@@]12CO[C@@H]1C[C@H](O)[C@@]1(C)C(=O)[C@H](O)C3=C(C)[C@@H](OC(=O)[C@H](O)[C@@H](NC(=O)OC(C)(C)C)c4ccccc4)C[C@@](O)([C@@H](OC(=O)c4ccccc4)[C@H]21)C3(C)C [DTX, Docetaxel]
- vascular stimulation: reaction at the injection site (histopathology) [3]: serious vascular inflammation and surrounding tissue lesions
